Where two headings read alike, the source gives them in different places.
Assays:
Assay in all cases: cells
Format in all cases: cell-based
Conditions in all cases: Homo sapiens; for IC (TGI): read-out: TGI
A549 = system: A549
Excerpt: (§1) The aim of this assay is to evaluate the in vitro cytostatic (ability to delay or arrest tumor cell growth) or cytotoxic (ability to kill tumor cells) activity of the samples being tested.
(§2) Evaluation of Cytotoxic Activity Using the SBR Colorimetric Assay
(§3) A colorimetric type of assay, using sulforhodamine B (SRB) reaction has been adapted for a quantitative measurement of cell growth and viability (following the technique described by Skehan P et al. J. Natl. Cancer Inst. 1990, 82, 1107-1112).
(§4) This form of assay employs SBS-standard 96-well cell culture microplates (Faircloth et al. Methods in cell science, 1988, 11(4), 201-205; Mosmann et al, Journal of. Immunological. Methods, 1983, 65(1-2), 55-63). All the cell lines used in this study, derived from different types of human cancer, were obtained from the American Type Culture Collection (ATCC).
(§5) Cells were maintained in Dulbecco's Modified Eagle Medium (DMEM) supplemented with 10% Fetal Bovine Serum (FBS), 2 mM L-glutamine, 100 U/mL penicillin and 100 U/mL streptomycin at 37° C., 5% CO2 and 98% humidity. For the experiments, cells were harvested from subconfluent cultures using trypsinization and resuspended in fresh medium before counting and plating.
(§6) Cells were seeded in 96 well microtiter plates at 5×10^3 cells per well in aliquots of 150 μL, and allowed to attach to the plate surface for 18 hours in drug free medium. One control (untreated) plate of each cell line was fixed (as described below) and used for time zero reference value. Afterwards, test samples were added to the cultures in ten serial dilutions, in aliquots of 50 μL, ranging from 10 to 0.00262 μg/mL. After 48 hours exposure, the antitumor effect was estimated by the SRB method: Briefly, cells were washed twice with PBS, fixed for 15 min in 1% glutaraldehyde solution, rinsed twice in PBS, and stained in 0.4% SRB solution for 30 min at room temperature. Cells were then rinsed several times with 1% acetic acid solution and air-dried. SRB was then extracted in 10 mM trizma base solution and the absorbance measured in an automated spectrophotometric plate reader at 490 nm. Cell survival was expressed as percentage of control cell growth. The final effect of the sample being tested was estimated by applying the NCI algorithm (Boyd M R and Paull K D. Drug Dev. Res. 1995, 34, 91-104).
(§7) Using the mean±SD of triplicate cultures, a dose-response curve was automatically generated using nonlinear regression analysis. Three reference parameters were calculated (NCI algorithm) by automatic interpolation: GI50=concentration that produces 50% growth inhibition; TGI=total growth inhibition (cytostatic effect) and LC50=concentration that produces 50% net cell killing (cytotoxic effect).

HT29 = system: HT29
Excerpt: as §1, §2, §3, §4, §5, §6, §7

MDA-MB-231 = system: MDA-MB-231
Excerpt: as §1, §2, §3, §4, §5, §6, §7

[1] = A549, 48 hours exposure, SRB, 50% net cell killing (cytotoxic effect), read-out: LC50 (the source's name)
[2] = A549, 48 hours exposure, SRB, concentration that produces 50% growth inhibition, read-out: GI50
[3] = A549, 48 hours exposure, SRB, total growth inhibition (cytostatic effect)
[4] = HT-29, HT29, 48 hours exposure, SRB, 50% net cell killing (cytotoxic effect), read-out: LC50 (the source's name)
[5] = HT-29, HT29, 48 hours exposure, SRB, concentration that produces 50% growth inhibition, read-out: GI50
[6] = HT-29, HT29, 48 hours exposure, SRB, total growth inhibition (cytostatic effect)
[7] = MDA-MB-231, 48 hours exposure, SRB, 50% net cell killing (cytotoxic effect), read-out: LC50 (the source's name)
[8] = MDA-MB-231, 48 hours exposure, SRB, concentration that produces 50% growth inhibition, read-out: GI50
[9] = MDA-MB-231, 48 hours exposure, SRB, total growth inhibition (cytostatic effect)
[10] = MDA-MB-231, 48 h, read-out: LC50

SMILES	CC50 (A549; [1]) [nM]	GI50 (A549; [2]) [nM]	IC (TGI) (A549; [3]) [µM]	CC50 (HT29; [4]) [nM]	GI50 (HT29; [5]) [nM]	IC (TGI) (HT29; [6]) [nM]	CC50 (MDA-MB-231; [7]) [nM]	GI50 (MDA-MB-231; [8]) [nM]	IC (TGI) (MDA-MB-231; [9]) [µM]	GI50 (A549; A549, 48 h) [nM]	CC50 (A549; A549, 48 h, read-out: LC50) [nM]	IC (TGI) (A549; A549, 48 h) [µM]	GI50 (HT29; HT-29, 48 h) [nM]	CC50 (HT29; HT-29, 48 h, read-out: LC50) [nM]	IC (TGI) (HT29; HT-29, 48 h) [nM]	GI50 (MDA-MB-231; MDA-MB-231, 48 h) [nM]	CC50 (MDA-MB-231; [10]) [nM]	IC (TGI) (MDA-MB-231; MDA-MB-231, 48 h) [µM]
COC1=CC[C@@H]([C@@H](C)/C=C(C)/C=C\C=C/C(=O)N[C@@H](C(N)=O)C(C)(C)C)OC1=O [(15R)-7]	> 24700	1040	3.46	1310	346	593	> 24700	766	2.47	–	–	–	–	–	–	–	–	–
COC1=CC[C@@H]([C@@H](C)/C=C(C)/C=C\C=C/C(=O)N[C@H](C(=O)N/C=C\C[C@@H](C/C=C(\C)Cl)OC(N)=O)C(C)C)OC1=O [(21S)-5]	> 1690	6.92	0.0287	3.88	2.53	2.87	103	4.56	0.0186	–	–	–	–	–	–	–	–	–
COC1=CC[C@@H]([C@@H](C)/C=C(C)/C=C\C=C/C(=O)N[C@H](C(=O)N/C=C\C[C@H](O)C/C=C(\C)Cl)C(C)(C)C)OC1=O [(21S)-30a]	> 1630	3.73	0.195	> 1630	2.66	3.02	284	2.49	0.0213	–	–	–	–	–	–	–	–	–
COC1=CC[C@@H]([C@@H](C)/C=C(C)/C=C/C=C/C(=O)N[C@H](C(=O)N/C=C\C[C@H](C/C=C(\C)Cl)OC(N)=O)C(C)(C)C)OC1=O [Compound 3]	–	–	–	–	–	–	–	–	–	1.02	> 165	0.00429	0.445	> 165	0.759	0.924	9.57	0.00247
C/C=C\C[C@@H](C/C=C\NC(=O)[C@@H](NC(=O)\C=C/C=C\C(C)=C\[C@H](C)[C@@H]1CC=C(OC)C(=O)O1)C(C)(C)C)OC(N)=O [Compound 4]	–	0.595	0.00245	–	< 0.431	0.928	–	0.613	0.00149	–	> 1640	–	–	1.12	–	–	8.23	–
COC1=CC[C@@H]([C@@H](C)/C=C(C)/C=C\C=C/C(=O)N[C@H](C(=O)N/C=C\C[C@H](C/C=C(\C)Cl)OC(N)=O)C(C)C)OC1=O [Compound 5]	> 169	0.0608	0.000321	> 169	0.0439	0.128	4.9	0.103	0.000456	–	–	–	–	–	–	–	–	–
COC1=CCC(C(C)/C=C(C)/C=C/C=C\C(=O)NC(C(=O)N/C=C\CC(C/C=C(\C)Cl)OC(N)=O)C(C)C)OC1=O (stereo not drawn) [Compound 6]	> 1640	0.76	> 1.64	4.9	0.591	1.01	15.5	0.49	0.00321	–	–	–	–	–	–	–	–	–
COC1=CC[C@@H]([C@@H](C)/C=C(C)/C=C\C=C/C(=O)N[C@H](C(N)=O)C(C)(C)C)OC1=O [Compound 7]	> 2470	618	1.19	816	420	544	2450	420	0.841	–	–	–	–	–	–	–	–	–
COC1=CC[C@@H]([C@@H](C)/C=C(C)/C=C\C=C\C(=O)N[C@H](C(=O)N/C=C\C[C@H](C/C=C(\C)Cl)OC(N)=O)C(C)(C)C)OC1=O [Compound 8]	–	–	–	–	–	–	–	–	–	3.63	> 1650	0.013	2.14	6.27	3.13	3.46	41.2	0.0101
